Data from patent US4861785A (priority 1985, dated 1989).
Structures can show the parent of a compound that is named as a salt.

The molecules below were run on KCN-induced lethality (assay: KCN Test in Rats (protection from KCN induced lethality)). Details: Rattus norvegicus, sc; male Wistar rats, subcutaneous, one hour before KCN 5 mg/kg i.v.; survival after 2 minutes; read-out: ED50-values (protecting 50% of the tested animals against KCN-induced lethality).
Assay type: in vivo

SMILES	ED50
C(=Cc1ccccc1)CN1CCC(Nc2nc3ccccc3o2)CC1 [Compound 107]	2.5 mg/kg
CN(c1nc2ccccc2s1)C1CCN(CCCOc2ccc3ccccc3c2)CC1 [Compound 148]	5 mg/kg
CN(c1nc2ccccc2s1)C1CCN(C[C@H](O)COc2ccc(F)cc2)CC1 [Compound 411, (-)-(S)-4-[(2-benzothiazolyl)methylamino]-α-[(4-fluorophenoxy)methyl]-1-piperidineethanol dihydrochloride]	5 mg/kg
CN(c1nc2ccccc2s1)C1CCN(CC(O)C2CCc3ccccc3O2)CC1 (stereo not drawn) [Compound 438, (A^-)-4-[(2-benzothiazolyl)methylamino]-α-(3,4-dihydro-2H-1-benzopyran-2-yl)-1-piperidineethanol]	10 mg/kg
CN(c1nc2ccccc2s1)C1CCN(CC(O)COc2ccc(F)cc2)C1 (stereo not drawn) [Compound 405, 3-[(2-benzothiazolyl)methylamino]-α-[(4-fluorophenoxy)methyl]-1-pyrrolidineethanol 4-methylbenzenesulfonate(1:2)]	10 mg/kg
CN(c1nc2ccccc2s1)C1CCN(CCCOc2ccc([N+](=O)[O-])cc2)CC1 [Compound 151]	5 mg/kg
CN(c1nc2ccccc2o1)C1CCN(C2CCCCC2)CC1 [Compound 309]	5 mg/kg
CN(c1nc2ccccc2o1)C1CCN(CCCOc2cccc(F)c2)CC1 [Compound 195]	1.25 mg/kg
CN(c1nc2ccccc2s1)C1CCN(CC(O)C2COc3ccccc3O2)CC1 (single isomer, unassigned) [Compound 415, (A)-4-[(2-benzothiazolyl)methylamino]-α-(2,3-dihydro-1,4-benzodioxin-2-yl)-1-piperidineethanol]	10 mg/kg
CN(c1nc2ccccc2o1)C1CCN(CC(O)COc2ccccc2)CC1 (stereo not shown) [Compound 322]	5 mg/kg
CN(c1nc2ccccc2s1)C1CCN(CCCCCOc2cccc(Cl)c2)CC1 [Compound 191]	2.5 mg/kg
CN(c1nc2ccccc2s1)C1CCN(CCCCOc2ccccc2)CC1 [Compound 10]	5 mg/kg
CN(c1nc2ccccc2s1)C1CCN(CCCCCOc2ccc(F)cc2)CC1 [Compound 32]	5 mg/kg
CN(c1nc2ccccc2s1)C1CCN(CCCCOc2cccc(Cl)c2)CC1.O=C(O)/C=C\C(=O)O [Compound 1, N-[1-[4-(3-chlorophenoxy)butyl]-4-piperidinyl]-N-methyl-2-benzothiazolamine (Z)-2-butenedioate (1:1)]	5 mg/kg
CN(c1nc2ccccc2s1)C1CCN(CCCCOc2ccc(F)cc2)C1 (stereo not shown) [Compound 118, N-[1-[4-(4-fluorophenoxy)butyl]-3-pyrrolidinyl]-N-methyl-2-benzothiazolamine dihydrochloride.monohydrate]	5 mg/kg
CN(c1nc2ccccc2s1)C1CCN(CC=Cc2ccccc2)CC1 [Compound 133]	5 mg/kg
CCN(c1nc2ccccc2s1)C1CCN(CCCOc2ccc(C)cc2)CC1 [Compound 123, N-ethyl-N-[1-[3-(4-methylphenoxy)propyl]-4-piperidinyl]-2-benzothiazolamine]	5 mg/kg
CN(c1nc2ccccc2s1)C1CCN(CCCCOc2ccc(Br)cc2)CC1 [Compound 42]	2.5 mg/kg
COc1ccccc1OCCCCCN1CCC(N(C)c2nc3ccccc3s2)CC1 [Compound 50]	2.5 mg/kg
CN(c1nc2ccccc2o1)C1CCN(CC(O)CSc2ccccc2)CC1 (stereo not drawn) [Compound 446, 4-[(2-benzoxazolyl)methylamino]-α-[(phenylthio)methyl]-1-piperidineethanol (E)-2-butenedioate(2:1)]	10 mg/kg
CN(c1nc2ccccc2o1)C1CCN(CC(O)COc2ccc(F)cc2)CC1 (stereo not shown) [Compound 323]	1.25 mg/kg
CN(c1nc2ccccc2s1)C1CCN(C[C@@H](O)COc2ccc(F)cc2)CC1 [Compound 410, (+)-(R)-4-[(2-benzothiazolyl)methylamino]-α-[(4-fluorophenoxy)methyl]-1-piperidineethanol dihydrochloride]	5 mg/kg

SMILES	ED50
Cc1cccc(OCCCN2CCC(N(C)c3nc4ccccc4o3)CC2)c1 [Compound 48]	1.25 mg/kg
CN(c1nc2ccccc2o1)C1CCN(CC(O)C2COc3ccccc3O2)CC1 (single isomer, unassigned) [Compound 413, (A)-4-[(2-benzoxazolyl)methylamino]-α-(2,3-dihydro-1,4-benzodioxin-2-yl)-1-piperidineethanol]	5 mg/kg
CN(c1nc2ccccc2o1)C1CCN(CCCCOc2ccc(Cl)cc2)CC1 [Compound 15]	0.63 mg/kg
CN(c1nc2ccccc2s1)C1CCN(CCCOc2ccc(F)cc2)CC1 [Compound 146]	5 mg/kg
CCCCN1CCC(N(C)c2nc3ccccc3o2)CC1 [Compound 103]	5 mg/kg
CN(c1nc2ccccc2s1)C1CCN(CCCCCc2ccccc2)CC1 [Compound 108]	5 mg/kg
CN(c1nc2ccccc2o1)C1CCN(CCc2ccccn2)CC1 [Compound 452, N-methyl-N-[1-[2-(2-pyridinyl)ethyl]-4-piperidinyl]-2-benzoxazolamine]	5 mg/kg
COc1ccc(OCCCN2CCC(N(C)c3nc4ccccc4s3)CC2)cc1 [Compound 24]	5 mg/kg
CN(c1nc2ccccc2s1)C1CCN(CC(O)COc2ccc(F)cc2)CC1 (stereo not drawn) [Compound 320, 4-[(2-benzothiazolyl)methylamino]-α-[(4-fluorophenoxy)methyl]-1-piperidineethanol monohydrochloride]	1.8 mg/kg
COc1ccc(OCCCCN2CCC(N(C)c3nc4ccccc4s3)CC2)cc1 [Compound 31]	5 mg/kg
CN(c1nc2ccccc2s1)C1CCN(CCCOc2cccc(F)c2)C1.O=C(O)C(=O)O (stereo not shown) [Compound 121, N-[1-[3-(3-fluorophenoxy)propyl]-3-pyrrolidinyl]-N-methyl-2-benzothiazolamine ethanedioate(1:1)]	2.5 mg/kg
CCN(c1nc2ccccc2s1)C1CCN(CC(O)COc2ccc(Cl)cc2)CC1 (stereo not shown) [Compound 357]	0.63 mg/kg
CN(c1nc2ccccc2s1)C1CCN(CCCOc2ccccc2F)CC1 [Compound 18]	5 mg/kg
CN(c1nc2ccccc2s1)C1CCN(CCCOc2cccc(F)c2)CC1 [Compound 9]	2.5 mg/kg
CN(c1nc2ccccc2s1)C1CCN(CC(O)CSc2ccc(Cl)cc2)CC1 (stereo not drawn) [Compound 443, 4-[(2-benzothiazolyl)methylamino]-α-[[(4-chlorophenyl)thio]methyl]-1-piperidineethanol (Z)-2-butenedioate(1:1)]	10 mg/kg
CN(c1nc2ccccc2o1)C1CCN(CC(O)COc2ccc(Cl)cc2)CC1 (stereo not shown) [Compound 324]	2.5 mg/kg
C[C@@H]1CN(CCCCOc2ccccc2)CC[C@@H]1N(C)c1nc2ccccc2s1 (relative stereo) [Compound 75]	10 mg/kg
CN(c1nc2ccccc2s1)C1CCN(CC(O)CSc2ccccc2)CC1 (stereo not drawn) [Compound 440, 4-[(2-benzothiazolyl)methylamino]-α-[(phenylthio)methyl]-1-piperidineethanol (Z)-2-butenedioate(1:1)]	10 mg/kg
CN(c1nc2ccccc2s1)C1CCN(CC(O)CSc2ccc(F)cc2)CC1 (stereo not drawn) [Compound 442, 4-[(2-benzothiazolyl)methylamino]-α-[[(4-fluorophenyl)thio]methyl]-1-piperdineethanol (Z)-2-butenedioate(1:1)]	2.5 mg/kg
Cc1cccc(OCCCN2CCC(N(C)c3nc4ccccc4s3)C2)c1.O=C(O)C(=O)O (stereo not shown) [Compound 120, N-methyl-N-[1-[3-(3-methylphenoxy)propyl]-3-pyrrolidinyl]-2-benzothiazolamine ethanedioate(1:1)]	2.5 mg/kg
CN(c1nc2ccccc2s1)C1CCN(CCCCOc2ccc(F)cc2)CC1 [Compound 11]	1.25 mg/kg
